Assays:
[1] = system: HBV viral product accumulation in 2.2.15 cells; experiment: HBV antiviral activity in 2.2.15 cells (qPCR of cell lysates or HBsAg/HBeAg ELISA of supernatants, day 5); type: cell-based; conditions: Hepatitis B virus, 120 h, 5 days treatment, 0.5% DMSO, 50% reduction of viral product accumulation relative to no drug controls, irrespective of readout
Description: 2.2.15 cells are passaged upon attaining confluency in DMEM/F12 media in the presence of 10% FBS, Penn/Strep, and 250 ug/mL G418. Novel compounds are 5 fold serially diluted in DMSO and added to 96 well plates containing 35,000 cells/well at a 1:200 dilution so that the final concentration of DMSO is 0.5%. On day 5, post treatment cell lysates and supernatants are harvested for analysis.
Cells are lysed using Agilent Sidestep Lysis buffer, diluted 1:100 and quantified via quantitative real time PCR. Commercially available ELISA kits are used to quantitate the viral proteins HBsAg (Alpco) or HBeAg (US Biological) by following the manufacturer's recommended protocol after diluting samples to match the linear range of their respective assays. Irrespective of readout, compound concentrations that reduce viral product accumulation in the cell lysates or supernatants by 50% relative to no drug controls (EC50) are reported; EC50 ranges are as follows: A<0.1 μM; B 0.2-1 μM; C>1 μM.

[2] = Compound induced cellular toxicity in HepG2 cells (ATPlite 1Step, total ATP levels, day 3); type: cell-based; conditions: human, three days, 0.5% DMSO, 50% reduction of total ATP levels relative to no drug controls
Description: At day 3, post seeding cells are treated with ATPlite 1Step according to the manufacturer's instructions.

Structure (SMILES)	EC50 [1] [nM]	CC50 at 3 days [2] [nM]
CC(C)(C)[C@@H]1Cn2nc(-c3cccc(F)c3)c(-c3cccc(F)c3)c2-c2cc(O)c(C(=O)O)cc21 [Example 5, (S)-6-(tert-butyl)-1,2-bis(3-fluorophenyl)-9-hydroxy-5,6-dihydropyrazolo[5,1-a]isoquinoline-8-carboxylic acid]	> 1000	–
CC(C)(C)[C@@H]1Cn2nc(-c3ccoc3)c(-c3ccoc3)c2-c2cc(O)c(C(=O)O)cc21 [Example 9, (S)-6-(tert-butyl)-1,2-di(furan-3-yl)-9-hydroxy-5,6-dihydropyrazolo[5,1-a]isoquinoline-8-carboxylic acid]	> 1000	–
CC(C)(C)[C@@H]1Cn2nc(-c3ccccc3)cc2-c2cc(O)c(C(=O)O)cc21 [Example 2, (S)-6-(tert-butyl)-9-hydroxy-2-phenyl-5,6-dihydropyrazolo[5,1-a]isoquinoline-8-carboxylic acid]	> 1000	–
CC(C)(C)[C@@H]1Cn2nc(-c3ccccc3F)c(-c3ccccc3F)c2-c2cc(O)c(C(=O)O)cc21 [Example 7, (S)-6-(tert-butyl)-1,2-bis(2-fluorophenyl)-9-hydroxy-5,6-dihydropyrazolo[5,1-a]isoquinoline-8-carboxylic acid]	< 100	> 25000
CC(C)(C)[C@@H]1Cn2nc(-c3ccccc3)c(-c3ccccc3)c2-c2cc(O)c(C(=O)O)cc21 [Example 8, (S)-6-(tert-butyl)-9-hydroxy-1,2-diphenyl-5,6-dihydropyrazolo[5,1-a]isoquinoline-8-carboxylic acid]	< 100	> 25000
CC(C)(C)[C@@H]1Cn2nc(-c3ccc(F)cc3)c(-c3ccc(F)cc3)c2-c2cc(O)c(C(=O)O)cc21 [Example 6, (S)-6-(tert-butyl)-1,2-bis(4-fluorophenyl)-9-hydroxy-5,6-dihydropyrazolo[5,1-a]isoquinoline-8-carboxylic acid]	< 100	> 25000
CC(C)(C)[C@@H]1Cn2nc(-c3ccc(F)cc3)cc2-c2cc(O)c(C(=O)O)cc21 [Example 1, (S)-6-(tert-butyl)-2-(4-fluorophenyl)-9-hydroxy-5,6-dihydropyrazolo[5,1-a]isoquinoline-8-carboxylic acid]	> 1000	–
CC(C)(C)[C@@H]1Cn2nc(-c3cccc(F)c3)cc2-c2cc(O)c(C(=O)O)cc21 [Example 4, (S)-6-(tert-butyl)-2-(3-fluorophenyl)-9-hydroxy-5,6-dihydropyrazolo[5,1-a]isoquinoline-8-carboxylic acid]	> 1000	–
CC(C)(C)[C@@H]1Cn2nc(-c3ccccc3F)cc2-c2cc(O)c(C(=O)O)cc21 [Example 3, (S)-6-(tert-butyl)-2-(2-fluorophenyl)-9-hydroxy-5,6-dihydropyrazolo[5,1-a]isoquinoline-8-carboxylic acid]	> 1000	–

From US20210292320A1, “FUNCTIONALIZED HETEROCYCLIC COMPOUNDS AS ANTIVIRAL AGENTS” (Enanta Pharmaceuticals, Inc., priority 2020, published 2021)
